Here are results for one molecule from patent US6355426B2, “Methods for the characterization and selection of RNA target motifs that bind compounds of pharmaceutical use” (priority 1996, dated 2002).

Test [1] deals with E. coli strains DH5a and JM109. Put plainly: Growth of pGEMR / pGEMR294 transformants on plates with varying concentrations of spectinomycin. Format: cell-based. The settings on record: 37° C. The protocol:
E. coli strains DH5a and JM109 were conventionally transformed with pGP1-2, and were subsequently transformed by pGEMR (control) and pGEMR294 (which contains the 16S sequence) as described above in Example 1D. Transformants were selected on LB agar containing ampicillin (200 ug/mL) and kanamycin ([…]). These transformants were subsequently examined for their ability to grow in the presence of varying concentrations of spectinomycin (5, 10, 15, 20 and 40 ug/mL). Spectinomycin resistant transformants were recovered at 37° C.
By contrast, transformants of pGEMR294 grew in the presence of the drug up to […]. Plasmids isolated from the transformants and used to retransform each strain, confirmed that resistance was indeed plasmid dependent.

The test system of test [2] is E. coli strain DC2. Nature of the test: Selection of spectinomycin-resistant transformants from a random rRNA fragment library. It is filed as cell-based. The source says:
Random rDNA fragments were generated by restriction endonuclease digestion of the entire rrnB operon encoding all three rDNAs (16S, 23S and 5S) and the spacer regions using a range and combination of one or more enzymes (including either AluI, HaeIII or DpnI or a double digestion with AluI/DpnI or HaeIII/DpnI) in which recognition sites occurred frequently within the target sequence. The enzymes AluI, HaeIII and DpnI release fragments that can be cloned in either orientation in to the SmaI site on pGEMR.
The fragments were ligated into the SmaI site in pGEMR and used to transform the respective strains. The diversity of RNA fragments within the library was determined by in vitro transcription of radiolabeled transcripts using the RIBOMAXÔ system (Promega), resolution by denaturing gel electrophoresis, and autoradiography according to standard procedures [Sambrook et al, cited above]. Briefly described, to establish that the pool of transformants harbored pGEMR encoding a mixed population of rRNA fragments, the plasmids were isolated, linearized with HindIII and transcribed in vitro with T7 RNA polymerase in the presence of ^32PaUTP. The products were resolved by denaturing gel electrophoresis and visualized by autoradiography. The library consisted of a large number of transcripts, varying in size with an average of 200-500 nucleotides in length. […]

Test [3] has as its system 30S subunits and 3' domain 16S rRNA sub-particle. The settings on record: 30S subunits and reconstituted 3' domain particle (nucleotides 923-1542 with eight r-proteins); cited from earlier work.

Turning to `CN[C@@H]1[C@H](O)[C@H](NC)[C@H]2O[C@@]3(O)C(=O)C[C@@H](C)O[C@H]3O[C@@H]2[C@H]1O` [spectinomycin], the “spectinomycin concentration up to which transformants grew” value in test [1] (transformants of pGEMR294 (16S rRNA fragment nucleotides 972-1266, helix 34) with pGP1-2) is on record as “up to 20 mg/mL”. For the same molecule, the “spectinomycin concentration above which transformants did not survive on plates” value in test [1] (transformants of pGEMR (control) with pGP1-2) was “above 5 mg/mL”. Further, the “spectinomycin concentration up to which resistant transformants developed on plates” value in test [2] (DC2 (pGP1-2) transformed with rRNA fragment library (16S/23S hybrid fragment), after 48 hours incubation at 37° C.) was “up to 40 ug/mL”. Moreover, in test [2] (comparison of transformants expressing 16/23S hybrid RNA with those encoding wild type helix 34 fragment), the “level of spectinomycin resistance, transformants expressing 16/23S RNA versus wild type helix 34 fragment” value is reported as “higher level of spectinomycin resistance”. Also, the “binding affinity to 30S subunit versus 3' domain sub-particle (dependence of protection on drug concentration)” value in test [3] was “binds with similar affinity to each particle”.
